Assay results: patent US20260294906A1, “TREATING PSORIASIS USING A SMALL MOLECULE INHIBITOR OF TUMOR NECROSIS FACTOR ALPHA” (SANOFI, priority 2023, published 2026)
Values joined by “and” are separate entries in the source; they are usually repeats but may differ in a detail not shown here. Equal values may be shown once. “Also recorded” adds a separate entry of the source.

Assays:
IL-22 = experiment: Serum levels of biomarker IL-22 (single-molecule array ELISA); type: in vivo, human
Procedure: (§1) The primary objective of the study was to assess the safety, tolerability, and clinical efficacy of Compound 1 at 200 mg BID via oral administration. Also evaluated was the clinical effect of Compound 1 as compared to placebo on the percent change in PASI and TLS scores from baseline to week 2 and week 4. The percent change in PASI score from baseline to week 4 was determined. TLS score was also assessed over the same time period. Also assessed was the effect of Compound 1 on biomarkers of psoriasis. Blood samples collected at predetermined time points were processed to quantify serum levels of biomarkers, including interleukin (IL)-17A, IL-17F, and IL-22 by high sensitivity methods. IL-17A, IL-17F and IL-22 are the main cytokines released by Th17 cells. Plasma levels of Compound 1 were measured to assess pharmacokinetics in the study population.
(§2) Two study interventions were used, Compound 1 and placebo. The Compound 1 intervention comprised 4× tablets of Compound 1 50 mg twice daily, i.e. 200 mg BID, for 4 weeks. The placebo intervention was 4× tablets of placebo twice daily for 4 weeks. Tablets were administered orally.
Blood samples were processed for analysis of IL-17A, IL-17F and IL-22 in serum samples by high sensitivity methods. Samples were collected according to the schedule of activity described above.
As indicated above, peripheral blood samples collected at predetermined time points were processed to quantify serum levels of biomarkers of psoriasis including IL-17A, IL-17F, and IL-22. Levels of IL-17A and IL-17F were quantified using a single molecule counting sandwich immunoassay (SMCxPro™, Millipore—see also Hwang et al., Methods (2019) 158:69-76). Levels of IL-22 were quantified using a single-molecule array ELISA (SIMOA™, Myriad RBM—see also Rissin et al., Anal Chem (2011) 83(6):2279-2285). Statistical analysis was based on geometric mean ratio to baseline; a two-sample t-test at significance alpha level of 5% was used for calculation of the p-values.

[1] = system: patients with mild to moderate psoriasis; experiment: Clinical response by Psoriasis Area and Severity Index (PASI) score, phase 1 placebo-controlled study; type: in vivo, human; conditions: for LSm (±SE) % improvement from baseline in total PASI score: 200 mg BID oral, fed; for LSm (±SE) % improvement from baseline in total PASI score / ΔLSm (±SE) (Compound 1 minus placebo) in % improvement from baseline in total PASI score: MMRM
Procedure: A double-blind, randomized, placebo-controlled phase 1 study was carried out in participants with mild to moderate psoriasis. Study participants were randomized to 200 mg twice a day (BID) of Compound 1 or placebo in 2:1 ratio (approximately 24 in the treatment group and 12 in the placebo group). The study comprised an up to 4-week screening period, and a 4-week treatment period with Compound 1 or placebo. An end-of-study visit was carried out 10±3 days after the last investigational medicinal product (IMP) administration.
as §1, §2
The interventions were used in two arms of the study. Arm 1 was the experimental arm and it involved participants receiving 200 mg of Compound BID for 4 weeks under fed conditions. Arm 2 was the placebo arm and it involved participants receiving the matching placebo tablets for 4 weeks under fed conditions.
The PASI scoring system evaluates psoriasis based on the body surface area (BSA) involvement and morphological characteristics of the plaques (see, e.g., EMA Guidelines on clinical investigation of medicinal products indicated for the treatment of psoriasis, Nov. 18, 2004). BSA estimation was performed using the ‘palm’ (i.e., the subject's flat hand and thumb together, fingers not included). The palm thus defined represented 1% of the total BSA. The PASI combines assessments of four body areas: head (h, 10%), upper extremities (u, 20%), trunk (t, 30%) and lower extremities (1, 40%). Using the palm to assess BSA (as described above) the proportion of skin affected by psoriasis in each area was given a numerical score (A) representing the proportion involved: 1 (0 to 9%); 2 (10 to 29%); 3 (30 to 49%); 4 (50 to 69%); 5 (70 to 89%) and 6 (90 to 100%). Within each area the severity of three signs, erythema (E), thickness/induration (I), and desquamation/scaling (D), was each assessed on a five-point scale: 0, none; 1, mild; 2, moderate; 3, severe; 4, very severe. The PASI ranges from 0 to 72 and is calculated using the following formula: […]
The PASI score was assessed at baseline, 2 weeks and 4 weeks. Table 4 below presents the LSm (±SE) for each treatment and ΔLSm (Compound 1 minus placebo) with 90% confidence interval (CI) in percentage improvement from baseline in the total PASI score at week 2 and week 4.
The results in Table 4 were obtained using the MMRM.
Table 5 below presents the mean (±SEM) percentage improvements from baseline in the total PASI score at week 2 and week 4 in the patient population with PASI<10 (mild) or PASI≥[…] at baseline.
The results in Table 5 come from standard descriptive analysis, ^(1)N=3, ^(2)N=15.

## CN1C(=O)c2cccc(OC(F)F)c2[C@H]2C[C@@H]1c1nc3ccc(-c4cnc(C5(N)CCC5)nc4)cc3n12 [Compound 1, (7R,14R)-11-[2-(1-aminocyclobutyl)pyrimidin-5-yl]-1-(difluoromethoxy)-6-methyl-6,7-dihydro-7,14-methanobenzimidazo[1,2-b][2,5]benzodiazocin-5(14H)-one]
IL-22; after treatment for 4 weeks
  Serum level of IL-22 (in words): substantially decreased
IL-22; baseline (before treatment)
  Serum level of IL-22, geometric mean (geometric SE): 4.13 (1.19) pg/mL
IL-22; week 2, 200 mg BID
  Serum level of IL-22, geometric mean (geometric SE): 2.86 (1.18) pg/mL
IL-22; week 4, 200 mg BID
  Serum level of IL-22, geometric mean (geometric SE): 2.49 (1.15) pg/mL
[1]; PASI < 10 (mild) population, week 2, 200 mg BID, N = 16, SEM 3.98
  Mean (±SEM) % improvement from baseline in total PASI score: 21.24% and 21.2%
[1]; PASI < 10 (mild) population, week 4, 200 mg BID, N = 15, SEM 5.34
  Mean (±SEM) % improvement from baseline in total PASI score: 33.8% and 33.83%
[1]; PASI ≥ 10 (moderate) population, week 2, 200 mg BID, N = 9
  Mean (±SEM) % improvement from baseline in total PASI score: 9.3% and 9.31% and 9.3 (3.60) %
[1]; PASI ≥ 10 (moderate) population, week 4, 200 mg BID, N = 9
  Mean (±SEM) % improvement from baseline in total PASI score: 33.2% and 33.19% and 33.2 (4.03) %
[1]; after 4 weeks of treatment
  improvement in PASI score (in words): clinically meaningful
[1]; compared to placebo, 4-week treatment, 200 mg BID
  improvement in psoriasis severity / clinical efficacy (in words): rapid and statistically significant improvement in psoriasis severity compared to placebo as early as week 2; also recorded: consistent clinical efficacy in a 4-week treatment period; also recorded: clinically effective, with sustained clinical response; also recorded: effective in improving clinical parameters in human patients
[1]; week 2, vs placebo 4.12%, p=0.005
  LSm (±SE) % improvement from baseline in total PASI score: 17.73% and 17.73 (2.75) %
[1]; week 2, 200 mg BID, 90% CI 5.28 to 21.94
  ΔLSm (±SE) (Compound 1 minus placebo) in % improvement from baseline in total PASI score: 13.61% and 13.61 (4.92) %
[1]; week 4, vs placebo 15.71%, p=0.009
  LSm (±SE) % improvement from baseline in total PASI score: 35.09% and 35.09 (4.47) %
[1]; week 4, 200 mg BID, 90% CI 6.28 to 32.48
  ΔLSm (±SE) (Compound 1 minus placebo) in % improvement from baseline in total PASI score: 19.4% and 19.38% and 19.38 (7.75) %
[1]; week 4, FIG. 2, placebo around 1.25 points
  mean reduction in total PASI score from baseline: around 3.0 points
